Measurements as given in patent publication US20030228373A1, “Composition including a triamine and a biocide and a method for inhibiting the growth of microorganisms with the same” (Lonza Inc., priority 2002, published 2003).

System: microorganisms in the process water
Test: Microbial count reduction in paper mill process water (3 h contact at 37° C., TGE agar plate count); synergism by the Kull method
Format: cell-based
Conditions: for Colony forming units per milliliter of sample (CFU/ml) after overnight incubation / Logarithmic Growth Reduction relative to the Control Experiment [log (CFU/ml of control plate) − log (CFU/ml of experimental plate)]: process water pH 7.0, 3 hours at 37° C.; for concentration alone required to yield a thousand fold reduction in the microorganism count of the process water (Qa, Qb): substance alone
Description: Samples of process water having a pH of 7.0 obtained from a paper mill were supplemented with Lonzabac® 12.100 and Barquat® MB-80 at the concentrations indicated in Table 1 below. Barquat® MB-80 is an 80% aqueous solution of N-(C12-C16 alkyl)-N-benzyl-N,N-dimethylammonium chloride available from Lonza Inc. of Fair Lawn, N.J. Lonzabac® 12.100 is a 100% N,N-bis(3-aminopropyl)-dodecylamine liquid available from Lonza Inc. The samples were immediately mixed and incubated for 3 hours at 37° C. with agitation in an orbital shaker. After 3 hours, tryptone glucose extract (TGE) agar plates were inoculated with each sample and grown overnight at 37° C. The number of colonies on each plate was then counted.
This experiment was repeated with a sample of process water that was not treated with Lonzabac® 12.100 or Barquat® MB-80 as a control.
Synergism for the solutions in Table 1 against the microorganisms in the process water was calculated by the methods described in C. E. Kull et al., “Mixtures of Quaternary Ammonium Compounds and Long-chain Fatty Acids as Antifungal Agents”, Applied Microbiology, 9:538-541 (1961). The synergism value (QA/Qa+QB/Qb) was determined. QA is the concentration of Lonzabac® 12.100 (in ppm) in a Lonzabac® 12.100/Barquat® MB-80 mixture, which yielded a thousand fold reduction in the microorganism count of the process water. Qa is the concentration of Lonzabac® 12.100 alone (in ppm) required to yield a thousand fold reduction in the microorganism count of the process water. QB is the concentration of Barquat® MB-80 (in ppm) in a Lonzabac® 12.100/Barquat® MB-80 mixture, which yielded a thousand fold reduction in the microorganism count of the process water. Qb is the concentration of Barquat® MB-80 alone (in ppm) required to yield a thousand fold reduction in the microorganism count of the process water.
The procedure in Example 1 was repeated substituting peracetic acid for Barquat® MB-80 with the solutions in Table 2 below.

CCCCCCCCCCCCN(CCCN)CCCN [Lonzabac ® 12.100, N,N-bis(3-aminopropyl)-dodecylamine]
Colony forming units per milliliter of sample (CFU/ml) after overnight incubation (Lonzabac 12.100 15 ppm alone): 6.55 × 10^7 CFU/ml
Logarithmic Growth Reduction relative to the Control Experiment [log (CFU/ml of control plate) − log (CFU/ml of experimental plate)] (Lonzabac 12.100 15 ppm alone): 0.7
Colony forming units per milliliter of sample (CFU/ml) after overnight incubation (Lonzabac 12.100 30 ppm alone): 6.40 × 10^6 CFU/ml
Logarithmic Growth Reduction relative to the Control Experiment [log (CFU/ml of control plate) − log (CFU/ml of experimental plate)] (Lonzabac 12.100 30 ppm alone): 1.7
Colony forming units per milliliter of sample (CFU/ml) after overnight incubation (Lonzabac 12.100 60 ppm alone): 3.25 × 10^5 CFU/ml
Logarithmic Growth Reduction relative to the Control Experiment [log (CFU/ml of control plate) − log (CFU/ml of experimental plate)] (Lonzabac 12.100 60 ppm alone): 3.0
Colony forming units per milliliter of sample (CFU/ml) after overnight incubation (Lonzabac 12.100 90 ppm alone): 1.00 × 10^5 CFU/ml
Logarithmic Growth Reduction relative to the Control Experiment [log (CFU/ml of control plate) − log (CFU/ml of experimental plate)] (Lonzabac 12.100 90 ppm alone): 3.5
concentration alone required to yield a thousand fold reduction in the microorganism count of the process water (Qa, Qb): 60 ppm

CC(=O)OO [Peracetic Acid, peracetic acid, reference compound]
Colony forming units per milliliter of sample (CFU/ml) after overnight incubation (Peracetic Acid 20 ppm alone): 1.43 × 10^7 CFU/ml
Logarithmic Growth Reduction relative to the Control Experiment [log (CFU/ml of control plate) − log (CFU/ml of experimental plate)] (Peracetic Acid 20 ppm alone): 1.3
Colony forming units per milliliter of sample (CFU/ml) after overnight incubation (Peracetic Acid 50 ppm alone): 1.00 × 10^5 CFU/ml
Logarithmic Growth Reduction relative to the Control Experiment [log (CFU/ml of control plate) − log (CFU/ml of experimental plate)] (Peracetic Acid 50 ppm alone): 3.2
concentration alone required to yield a thousand fold reduction in the microorganism count of the process water (Qa, Qb): 50 ppm
